Measurements published in patent US20180243421A1, “IMMUNOSTIMULATING AGENT” (AJINOMOTO CO., INC., priority 2015, published 2018).

Legend:
[1] = tested on: anti-OVA-specific IgG1 subclass antibody; experiment: Adjuvant activity: anti-OVA-specific IgG1 subclass antibody in serum after secondary immunization (Examples 12, 19, 20, 21); assay type: in vivo, BALB/c mice; conditions: Example 21; s.c.; SZ62 0.256 μmol in 5% αCD saline, CpG 5 μg, MPL 5 μg, Addavax 1:1, Alum; two weeks from secondary immunization
[2] = tested on: anti-OVA-specific IgG2a subclass antibody; experiment: Adjuvant activity: anti-OVA-specific IgG2a subclass antibody in serum after secondary immunization; assay type: in vivo, BALB/c mice; conditions: Example 21; s.c.; SZ62 0.256 μmol in 5% αCD saline, CpG 5 μg, MPL 5 μg, Addavax 1:1, Alum; two weeks from secondary immunization
Description: (§1) Two weeks from the secondary immunization, the whole blood was extracted under anesthesia, and the obtained serum sample was measured for anti-OVA-specific IgG1 subclass antibody.
Measurement Method of anti-OVA-specific IgG2a Subclass Antibody
(§2) To a 96 well plate was added 5 μg/ml OVA at 100 μl/well, and the mixture was incubated at 4° C. overnight. After incubation, the mixture was washed three times with 200 μl of PBS-T (PBS+0.05%(v/v) Tween 20) per well, and blocked with 100 μl of 5% FCS/PBS solution per well at room temperature for 1 to 2 hr. Thereafter, the mixture was washed three times with PBS-T (200 μl/well), a diluted serum sample (100 μl/well) or the same amount of 5% FCS/PBS solution as a control was added, and the mixture was incubated at 37° C. for 1 hr. Thereafter, the mixture was washed five times with PBS-T (200 μl/well), a diluted biotinylated anti-mouse IgG2a antibody (100 μl/well) was added, and the mixture was incubated at 37° C. for 45 min. Thereafter, the mixture was washed five times with PBS-T (200 μl/well), a diluted anti-biotin-HRP antibody was added (100 μl/well), and the mixture was incubated at 37° C. for another 30 min. Thereafter, the mixture was washed five times with PBS-T (200 μl/well), TMB substrate solution was added (100 μl/well), and the mixture was incubated at room temperature for 10-15 min. Thereafter, a reaction quenching liquid (2N sulfuric acid solution) was added (50 μl/well) to discontinue a color developing reaction, and the absorbance (OD Value=450 nm) was measured by a microplate reader.
Measurement Method of Concentration of anti-OVA-specific IgG1 Subclass Antibody and anti-OVA-specific IgG2a Subclass Antibody
To a 96 well plate was added 5 μg/ml OVA at 100 μl/well, and the mixture was incubated at 4° C. overnight. After incubation, the mixture was washed three times with 200 μl of PBS-T (PBS+0.05% (v/v) Tween 20) per well, and blocked with 100 μl of 5% FCS/PBS solution per well at room temperature for 1 to for 2 hr. […] When an anti-OVA-specific IgG2a subclass antibody was measured, the standard of an anti-OVA-specific IgG2a subclass antibody was added at 50 ng/ml, 25 ng/ml, 12,5 ng/ml, 6.25 ng/ml, 3.125 ng/ml, 1.56 ng/ml, 0.781 ng/ml, 0.391 ng/ml, 0.195 ng/ml, 0.098 ng/ml, 0.049 ng/ml, 0 ng/ml, per 1 well. […] Thereafter, a reaction quenching liquid (2N sulfuric acid solution) was added (50 μl/well) to discontinue a color developing reaction, and the absorbance (OD Value=450 nm) was measured by a microplate reader. A standard curve was drawn from the measured OD values, and the concentration was calculated.

IL-4 = experiment: Th2 response: IL-4 production from lymph node cells of immunized mice restimulated with OVA; assay type: in vivo, BALB/c mice; conditions: Example 10; s.c. OVA 10 μg + 0.256 μmol in 5% αCD saline (Addavax 1:1); groin lymph node ten days later; 0.1-100 μg OVA, 40 hr, ELISA
Description: (§3) Ten days later, groin lymph node was collected from all mice of the above-mentioned (1) to (4), lymph node cells were isolated and cultured in 10% FBS-containing RPMI1640 medium. Thereto was added 0.1 μg, 1 μg, 10 μg, 100 μg of OVA, respectively, 40 hr later, cell supernatant was recovered, and IFN-γ and IL-4 in the supernatant were measured by ELISA.

[3] = tested on: anti-OVA-specific IgE antibody; conditions: mouse, in vivo
Description: The serum sample obtained in Example 1 was measured for an anti-OVA-specific IgE antibody. The measurement method of the anti-OVA-specific IgE antibody in Example 3 and Examples 6, 9 is as follows.
Measurement Method of anti-OVA-specific IgE Antibody
DS mouse IgE ELISA (OVA) kit manufactured by DS Pharma Biomedical Co., Ltd. was used. The protocol is briefly shown below.
The serum sample and a standard reagent for drawing an analytical curve are diluted with a buffer and, after stirring, left standing at room temperature for 10 min. The sample and the standard solution are added to a plate bound with an IgE capture antibody in advance and, after stirring, the mixture is left standing at room temperature for 60 min. The mixture is washed three times with wash, HRP-labeled OVA is added, and the mixture is left standing at room temperature for 30 min. The mixture is washed three times with wash, a substrate solution is added, and the mixture is left standing in dark at room temperature for 30 min. A reaction quenching liquid is added, the mixture is stirred, and the absorbance (OD Value=450 nm) is immediately measured.
This test was performed in the same manner as in Example 3 except that N^2-hexadecanoyl-L-arginine (SZ61), N-hexadecanoylagmatine (SZ62), N^2-hexadecanoyl-L-arginine methyl ester hydrochloride (SZ63), N^2-octadecanoyl-L-glutamine tert-butyl ester (SZ64), and N^2-octadecanoyl-L-glutamine (SZ65) were used.
This test was performed in the same manner as in Example 6 except that N-hexadecanoylagmatine (SZ62), N^2-octadecanoyl-L-glutamine tert-butyl ester (SZ64), N-docosanoyl-L-leucine methyl ester (SZ70), and N-docosanoyl-L-phenylalanine methyl ester (SZ71) were used and a positive control adjuvant Addavax™ (InvivoGen) administration group was formed.
(§4) The allergy inducing activity test was performed in the same manner as in Example 3 except that Addavax™, N-(2-octadecyleicosanoyl)-L-leucine methyl ester (SZ86), N-hexadecanoyl-L-leucinamide (SZ90), N^2-hexadecanoyl-N^1,N^1-diethyl-L-leucinamide (SZ92), N^2-hexadecanoyl-L-arginine hexyl ester hydrochloride (SZ99) and N^2-docosanoyl-N^1,N^1-diethyl-L-glutamic acid 1-amide (SZ106) were used.
as §4, with “N-hexadecanoyl-L-leucine” for “N^2-hexadecanoyl-L-arginine”, “(SZ97),” for “hydrochloride (SZ99) and”, “(SZ106) and N-docosanoylagmatine hydrochloride (SZ108)” for “(SZ106)”
8-Week-old female BALB/c mice were divided into groups (N=6), and each group was primarily immunized by dorsal-subcutaneous administration of (1) ovalbumin (OVA) (5 μg) dissolved in saline as an antigen (OVA single administration group), (2) OVA (10 μg) and aluminum hydroxide salt dissolved in saline (Alum administration group), (3) OVA 10 μg and Addavax™ (mixed with saline at 1:1) dissolved in saline (Addavax™ administration group), (4) OVA 10 μg and CpG 5 μg dissolved in saline (CpG administration group), (5) OVA 10 μg and MPL 5 μg dissolved in saline (MPL administration group), (6) OVA (5 μg) and SZ62 (0.256 μmol) dissolved or dispersed in 5% αCD-added saline (SZ62 administration group), (7) OVA (5 μg), SZ62 (0.256 μmol) and CpG 5 μg dissolved or dispersed in 5% αCD-added saline (SZ62+CpG administration group), (8) OVA 10 μg, Addavax™ (mixed with saline at 1:1) and CpG 5 μg dissolved in saline (Addavax™+CpG administration group), (9) OVA (5 μg), SZ62 (0.256 μmol) and MPL 5 μg dissolved or dispersed in 5% αCD-added saline (SZ62+MPL administration group), (10) OVA (10 μg), aluminum hydroxide salt (Alum) and MPL 5 μg dissolved in saline (Alum+MPL administration group), each per mouse. One week later, the secondary immunization was carried out by dorsal-subcutaneous administration of solutions or dispersions similar to those of the above-mentioned (1) to (10) again.

[4] = tested on: anti-OVA-specific IgG1 subclass antibody; experiment: Adjuvant activity: anti-OVA-specific IgG1 subclass antibody in serum after secondary immunization (Examples 1, 5, 7, 8; ELISA absorbance); assay type: in vivo, BALB/c mice; conditions: Example 7
Description: as §1
A method for measurement of the anti-OVA-specific IgG1 subclass antibody in Example 1, and the following Examples 5, 7 and 8 is as follows.
Measurement Method of anti-OVA-specific IgG1 Subclass Antibody
as §2, with “IgG1” for “IgG2a”, “10 to 15” for “10-15”

IFN-γ = experiment: Th1 response: IFN-γ production from lymph node cells of immunized mice restimulated with OVA; assay type: in vivo, BALB/c mice; conditions: Example 10; s.c. OVA 10 μg + 0.256 μmol in 5% αCD saline (Addavax 1:1); groin lymph node ten days later; 0.1-100 μg OVA, 40 hr, ELISA
Description: as §3

monophosphoryl lipid [MPL, reference compound]
anti-OVA-specific IgG1 subclass antibody production as compared to the OVA single administration group [1]: significantly increased
anti-OVA-specific IgG2a subclass antibody production as compared to the OVA single administration group [2]: tended to increase

CCCCCCCCCCCCCCCCCCCCCC(=O)N[C@@H](CC(C)C)C(=O)OC [SZ70, N-docosanoyl-L-leucine methyl ester]
IL-4 production from lymph node cells (IL-4): did not show an increase
allergy inducing activity as compared to aluminum hydroxide gel adjuvant and Addavax [3]: lower allergy inducing activity
adjuvant activity (IgG1) compared with Alum [4]: equivalent to or not less than that of Alum
anti-OVA-specific IgG1 subclass antibody production as compared to the OVA single administration group ([4]; same manner as Example 1, plus Addavax group): significantly increased
IFN-γ production from lymph node cells (IFN-γ): increased in an OVA volume dependent manner
